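Tested at 5 concentrations; 48 h exposure; 96-well plates; endpoints linearly interpolated, else capped at highest concentration. GI50 marks 50% less growth. TGI: total growth inhibition.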
How the values were obtained:
Test in all cases: NCI tumour cell line growth inhibition, 48 h
[1] = tested on: SF-539 CNS
[2] = tested on: SF-295 CNS
[3] = tested on: U251 CNS
[4] = tested on: HCC-2998 colon
[5] = tested on: PC-3 prostate
[6] = tested on: NCI-H522 lung
[7] = tested on: MOLT-4 leukemia
[8] = tested on: RXF 393 renal
[9] = tested on: M14 melanoma
[10] = tested on: HT29 colon

For `CC(C)c1cc(-c2n[nH]c(=O)n2-c2ccc3c(ccn3C)c2)c(O)cc1O`, the GI50 [1] was less than 0.0279 µM, the TGI [1] was 21.8 µM and the GI50 [2] was less than 0.0215 µM. For the same compound, the TGI [2] was 0.796 µM, the GI50 [3] was less than 0.0257 µM and the TGI [3] was 18 µM. For the same compound, the GI50 [4] was 0.0256 µM, the TGI [4] was 2.77 µM and the GI50 [5] was less than 0.0224 µM. For the same compound, the TGI [5] was 49.6 µM, the GI50 [6] was less than 0.0205 µM and the TGI [6] was 17.1 µM. For the same compound, the GI50 [7] was less than 0.0177 µM, the GI50 [8] was less than 0.0304 µM and the TGI [8] was 21.5 µM. It also gave a GI50 [9] of less than 0.0198 µM, a TGI [9] of 21.1 µM and a GI50 [10] of 0.0423 µM. It also gave a TGI [10] of 12.5 µM.
With `CCc1nccc2c1nc(-c1nonc1N)n2CC` the GI50 [1] was greater than 25 µM, the TGI [1] was greater than 25 µM and the GI50 [2] was greater than 7.78 µM. For the same compound, the TGI [2] was greater than 25 µM, the GI50 [3] was greater than 25 µM and the TGI [3] was greater than 25 µM. The GI50 [4] was greater than 25 µM, the TGI [4] was greater than 25 µM and the GI50 [5] was greater than 25 µM. For the same compound, the TGI [5] was greater than 25 µM, the GI50 [6] was greater than 17.7 µM and the TGI [6] was greater than 25 µM. It also gave a GI50 [7] greater than 25 µM, a TGI [7] greater than 25 µM and a GI50 [8] of 13.6 µM. It also gave a TGI [8] greater than 25 µM, a GI50 [9] greater than 25 µM and a TGI [9] greater than 25 µM. For the same compound, the GI50 [10] was greater than 25 µM and the TGI [10] was greater than 25 µM.
`CC1(C)CC(=O)c2c(C(F)(F)F)nn(-c3ccc(C(N)=O)c(NC4CCC(OC(=O)CN)CC4)c3)c2C1` (stereo not given) gave a GI50 [1] of 0.364 µM, a TGI [1] of 20.8 µM and a GI50 [2] of 0.0593 µM. The TGI [2] was greater than 100 µM, the GI50 [3] was 0.0731 µM and the TGI [3] was greater than 54.2 µM. The GI50 [4] was 0.195 µM, the TGI [4] was 13.2 µM and the GI50 [5] was 0.0688 µM. The TGI [5] was greater than 100 µM, the GI50 [6] was 0.0387 µM and the TGI [6] was 20.1 µM. It also gave a GI50 [7] of 0.0437 µM, a TGI [7] of 24.4 µM and a GI50 [8] of 0.157 µM. The TGI [8] was 28.8 µM, the GI50 [9] was 0.0608 µM and the TGI [9] was 26.5 µM. The GI50 [10] was 0.0321 µM and the TGI [10] was greater than 100 µM.
`Cc1cc(N(CCCl)CCCl)ccc1C=Nc1ccc(-c2csc(Cc3ccccc3)n2)cc1` gave a GI50 [1] of 5.41 µM, a TGI [1] of 29.4 µM and a GI50 [2] of 1.65 µM. For the same compound, the TGI [2] was 50.6 µM, the GI50 [3] was 7.82 µM and the TGI [3] was 37.6 µM. It also gave a GI50 [4] of 14.4 µM, a TGI [4] of 33.3 µM and a GI50 [5] of 5.66 µM. The TGI [5] was 44.2 µM, the GI50 [6] was 11.7 µM and the TGI [6] was 27 µM. For the same compound, the GI50 [7] was 2.22 µM, the TGI [7] was 62 µM and the GI50 [8] was 14.6 µM. For the same compound, the TGI [8] was 71.3 µM, the GI50 [9] was 15.7 µM and the TGI [9] was 58.6 µM. It also gave a GI50 [10] of 17.3 µM and a TGI [10] of 47.2 µM.
With `CCCC(=O)OC1C(C(O)CO)OC2OC(C)(C)OC21` (stereo not given) the TGI [1] was greater than 100 µM, the TGI [2] was greater than 100 µM and the TGI [3] was greater than 100 µM. For the same compound, the TGI [4] was greater than 100 µM, the TGI [5] was greater than 100 µM and the TGI [6] was greater than 100 µM. It also gave a TGI [7] greater than 100 µM, a TGI [8] greater than 100 µM and a TGI [9] greater than 100 µM. It also gave a TGI [10] greater than 100 µM.
With `Cn1cccc1-c1cc(-c2cccs2)nc(N)c1C#N` the GI50 [1] was greater than 100 µM, the TGI [1] was greater than 100 µM and the GI50 [2] was greater than 100 µM. The TGI [2] was greater than 100 µM, the GI50 [3] was greater than 100 µM and the TGI [3] was greater than 100 µM. The GI50 [4] was greater than 100 µM, the TGI [4] was greater than 100 µM and the GI50 [5] was greater than 100 µM. It also gave a TGI [5] greater than 100 µM, a GI50 [6] greater than 100 µM and a TGI [6] greater than 100 µM. The GI50 [7] was greater than 100 µM, the TGI [7] was greater than 100 µM and the GI50 [8] was greater than 100 µM. The TGI [8] was greater than 100 µM, the GI50 [10] was greater than 100 µM and the TGI [10] was greater than 100 µM.
`CC(CCC(=O)O)[C@H]1CCC2[C@@H]3CC[C@@H]4CC(O)CC[C@]4(C)C3CC[C@@]21C` (stereo not given in full) gave a GI50 [1] of 26 µM, a TGI [1] of 72.4 µM and a GI50 [3] of 40.2 µM. The TGI [3] was greater than 100 µM, the GI50 [4] was 22.2 µM and the TGI [4] was 61 µM. It also gave a GI50 [5] of 26.2 µM, a TGI [5] of 72.3 µM and a GI50 [6] of 68.1 µM. The TGI [6] was greater than 100 µM, the GI50 [7] was 22 µM and the TGI [7] was 79 µM. The GI50 [8] was 46.9 µM, the TGI [8] was greater than 100 µM and the GI50 [9] was 30.4 µM. For the same compound, the TGI [9] was 97.8 µM, the GI50 [10] was 46.1 µM and the TGI [10] was greater than 100 µM.
